Data on seven compounds can be found in US20250230165A1, “HETEROCYCLIC COMPOUNDS FOR USE IN THE TREATMENT OF CANCER” (ARTIOS PHARMA LIMITED, priority 2021, published 2025).

In this assay the target is T1, Human Polθ polymerase domain (aa1820-2590) (Homo sapiens, UniProt O75417).
T1 construct: Human Polθ polymerase domain (aa1820-2590) was expressed in E. coli; made in house; host or cells: E. coli
T1 sequence (O75417 1820-2590): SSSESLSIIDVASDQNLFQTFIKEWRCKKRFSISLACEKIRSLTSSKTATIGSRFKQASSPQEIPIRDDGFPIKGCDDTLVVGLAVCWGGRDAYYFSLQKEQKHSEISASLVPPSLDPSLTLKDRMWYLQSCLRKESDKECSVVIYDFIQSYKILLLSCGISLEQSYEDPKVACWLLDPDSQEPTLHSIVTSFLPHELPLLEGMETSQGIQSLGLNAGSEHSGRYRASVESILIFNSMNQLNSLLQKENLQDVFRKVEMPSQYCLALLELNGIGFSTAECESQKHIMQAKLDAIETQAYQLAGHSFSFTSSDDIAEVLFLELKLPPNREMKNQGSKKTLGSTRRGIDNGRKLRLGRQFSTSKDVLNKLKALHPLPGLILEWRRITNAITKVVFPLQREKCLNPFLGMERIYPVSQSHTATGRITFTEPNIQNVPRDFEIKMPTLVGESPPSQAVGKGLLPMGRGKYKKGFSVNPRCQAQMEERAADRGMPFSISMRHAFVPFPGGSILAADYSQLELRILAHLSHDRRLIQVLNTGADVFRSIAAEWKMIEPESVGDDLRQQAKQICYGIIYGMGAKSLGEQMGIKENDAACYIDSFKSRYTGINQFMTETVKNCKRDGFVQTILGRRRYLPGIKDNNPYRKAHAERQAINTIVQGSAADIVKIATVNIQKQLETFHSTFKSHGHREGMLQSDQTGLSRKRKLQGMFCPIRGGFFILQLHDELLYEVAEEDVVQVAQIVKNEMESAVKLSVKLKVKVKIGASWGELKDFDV
The assay can be described thus: Polθ Polymerase Domain Kinact/KI Assay (PicoGreen). The format is biochemical. The settings on record: 0.8 nM Polθ, 100 nM DNA substrate, kobs vs [I] fit for 2-step covalent inhibitor. The method in brief: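 Time-dependent inhibition was followed by quenching reactions with EDTA at points up to 60 min, then staining product DNA with PicoGreen fluorescence. Reactions held 0.8 nM E. coli-expressed Polθ, 100 nM primed DNA substrate and […] at pH 7.5, 1% DMSO. kobs versus inhibitor concentration gave Kinact and KI.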

`C=CC(=O)N1Cc2cc(CN3C[C@H]4CC(=O)N(c5cc(C(F)(F)F)cc(C)n5)[C@@H]4C(=O)N(C)c4cccc(C)c43)cnc2C1` [Example 312, (3aR,11aS)-5-((6-acryloyl-6,7-dihydro-5H-pyr-rolo[3,4-b]pyridin-3-yl)methyl)-6,10-dimethyl-1-(6-methyl-4-(trifluoro-methyl)pyridin-2-yl)-1,3a,4,5,10, 11a-hexahydro-2H-benzo[b]pyrrolo [2,3-f][1,4]diazo-cine-2,11(3H)-dione]: the Kinact/Kl amounted to 1.85e+06 M⁻¹ s⁻¹.

For the compound `C#CC(=O)N1Cc2nc(CN3C[C@H]4CC(=O)N(c5cc(C(F)(F)F)cc(C)n5)[C@@H]4C(=O)N(C)c4cccc(C)c43)cn2C[C@H]1C` (racemic) [Example 199, (3aR,11aS)-6,10-dimethyl-1-(6-methyl-4-(tri-fluoromethyl)pyr-idin-2-yl)-5-(((R/S)-6-methyl-7-propioloyl-5,6,7,8-tetrahydro-imidazo[1,2-a]pyr-azin-2-yl)methyl)-1,3a,4,5,10,11a-hexahydro-2H-benzo[b]pyrrolo [2,3-f][1,4]diazo-cine-2,11(3H)-dione], the Kinact/Kl was determined as 1.38e+06 M⁻¹ s⁻¹.

As for `C=CC(=O)N1C[C@H]2C[C@@H]1CN2CCN1C[C@H]2CC(=O)N(c3cc(C(F)(F)F)cc(C)n3)[C@@H]2C(=O)N(C)c2cccc(C)c21` [Example 263, (3aR,11aS)-5-(2-((1R,4R)-5-acryloyl-2,5-diazabicyclo[2.2.1]heptan-2-yl)ethyl)-6,10-dimethyl-1-(6-methyl-4-(trifluoromethyl)pyridin-2-yl)-1,3a,4,5,10,11a-hexahydro-2H-benzo[b]pyrrolo[2,3-f][1,4]diazocine-2,11(3H)-dione], the Kinact/Kl turned out to be 1.06e+06 M⁻¹ s⁻¹.

Compound `C=CC(=O)N1CCn2cc(CN3C[C@H]4CC(=O)N(c5cc(C(F)(F)F)cc(C)n5)[C@@H]4C(=O)N(C)c4cccc(C)c43)nc2C1` [Example 203, (3aR,11aS)-5-((7-acryloyl-5,6,7,8-tetrahydroimidazo [1,2-a]pyrazin-2-yl)methyl)-6,10-dimethyl-1-(6-methyl-4-(trifluoromethyl)pyridin-2-yl)-1,3a,4,5,10,11a-hexahydro-2H-benzo[b]pyrrolo [2,3-f][1,4]diazocine-2,11(3H)-dione] returned a Kinact/Kl of 4.32e+06 M⁻¹ s⁻¹.

In turn, `C=CC(=O)N1Cc2nc(CN3C[C@H]4CC(=O)N(c5cc(C(F)(F)F)cc(C)n5)[C@@H]4C(=O)N(C)c4cccc(Cl)c43)cn2CC1C(F)F` (mixture of isomers) [Example 243a, (3aR,11aS)-5-(((S/R)-7-acryloyl-6-(difluoromethyl)-5,6,7,8-tetrahydroimidazo[1,2-a]pyrazin-2-yl)methyl)-6-chloro-10-methyl-1-(6-methyl-4-(trifluoromethyl)pyridin-2-yl)-1,3a,4,5,10,11a-hexahydro-2H-benzo[b]pyrrolo[2,3-f][1,4]diazocine-2,11(3H)-dione] yielded a Kinact/Kl of 1.03e+06 M⁻¹ s⁻¹.

`Cc1cc(C(F)(F)F)cc(N2C(=O)C[C@@H]3CN(Cc4ccc(NC(=O)C5=CCCNC5)cc4)c4c(C)cccc4N(C)C(=O)[C@H]32)n1` [Example 88, N-(4-(((3aR,11aS)-6,10-dimethyl-1-(6-methyl-4-(trifluoromethyl)pyridin-2-yl)-2,11-dioxo-1,2,3,3a,4,10,11,11a-octahydro-5H-benzo[b]pyrrolo[2,3-f][1,4]diazocin-5-yl)methyl)phenyl)-1,2,5,6-tetrahydropyridine-3-carboxamide] returned a Kinact/Kl of 4.75e+06 M⁻¹ s⁻¹.

In the case of `C=CC(=O)N1CC2(CN(CCN3C[C@H]4CC(=O)N(c5cc(C(F)(F)F)cc(C)n5)[C@@H]4C(=O)N(C)c4cccc(Cl)c43)C[C@@H](C)N2)C1` [Example 13, (3aR,11aS)-5-(2-((R)-2-acryloyl-6-methyl-2,5,8-triazaspiro[3.5]nonan-8-yl)ethyl)-6-chloro-10-methyl-1-(6-methyl-4-(trifluoromethyl)pyridin-2-yl)-1,3a,4,5,10,11a-hexahydro-2H-benzo[b]pyrrolo[2,3-f][1,4]diazocine-2,11(3H)-dione], the Kinact/Kl came to 1.26e+06 M⁻¹ s⁻¹.
